Test results as given in ChEMBL document CHEMBL1201862, “PubChem BioAssay data set” (2004).
Activity calls are given as the source filed them.

Experiments:
HEK293 [1] = assay: cells; details: Homo sapiens
HEK293 [2] = assay: cells; type: functional, cell-based; details: Homo sapiens
HEK293 [3] = assay: cells; details: Homo sapiens; remark: listed apart in the source
HEK293 [4] = assay: NOD1 signaling inhibitors, primary screen, cell-based, luminescence, uHTS (AID 1578); type: functional; details: Homo sapiens
Protein RecA = molecular target: T1, Protein RecA (Mycobacterium tuberculosis, UniProt P9WHJ3); assay: Fluorescence Cell-Free Homogeneous Dose Retest to Identify Inhibitors of RecA-Intein Splicing Activity. [Related pubchem assays (depositor defined):AID2097, AID2223, AID489010, AID492950]; type: functional
T1 sequence (P9WHJ3 whole entry): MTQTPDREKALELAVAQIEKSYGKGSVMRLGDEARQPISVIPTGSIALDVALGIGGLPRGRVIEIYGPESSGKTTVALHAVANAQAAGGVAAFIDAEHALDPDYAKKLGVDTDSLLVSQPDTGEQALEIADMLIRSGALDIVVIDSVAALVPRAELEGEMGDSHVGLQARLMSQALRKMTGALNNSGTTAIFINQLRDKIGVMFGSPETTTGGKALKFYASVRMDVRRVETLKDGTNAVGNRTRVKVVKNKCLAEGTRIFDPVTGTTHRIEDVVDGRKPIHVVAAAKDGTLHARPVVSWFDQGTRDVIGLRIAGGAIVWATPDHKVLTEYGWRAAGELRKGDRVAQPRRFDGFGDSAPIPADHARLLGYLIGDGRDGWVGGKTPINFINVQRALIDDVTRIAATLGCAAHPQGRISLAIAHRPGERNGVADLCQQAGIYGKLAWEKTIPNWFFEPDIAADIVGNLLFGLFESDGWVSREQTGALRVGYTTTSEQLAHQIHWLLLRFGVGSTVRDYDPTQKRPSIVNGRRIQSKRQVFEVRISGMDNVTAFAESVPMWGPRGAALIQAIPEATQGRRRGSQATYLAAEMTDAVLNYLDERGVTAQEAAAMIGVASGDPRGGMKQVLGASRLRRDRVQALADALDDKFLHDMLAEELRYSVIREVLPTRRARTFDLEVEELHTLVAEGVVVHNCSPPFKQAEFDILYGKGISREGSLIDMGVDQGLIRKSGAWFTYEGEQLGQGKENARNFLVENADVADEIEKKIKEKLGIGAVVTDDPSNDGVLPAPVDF

HEK293 [5] = assay: cells; type: functional, cell-based; details: Homo sapiens; remark: listed apart in the source
HEK293 [6] = assay: NOD2 signaling inhibitors in MDP-stimulated cells, cell-based, uHTS, luminescence (AID 2001); type: functional; details: Homo sapiens
[7] = molecular target: T2, Replicative DNA helicase DnaB (Mycobacterium tuberculosis, UniProt P9WMR3); assay: DnaB intein splicing inhibitors, dose response, biochemical, cell-free fluorescence (AID 449749); type: functional
T2 sequence (P9WMR3 whole entry): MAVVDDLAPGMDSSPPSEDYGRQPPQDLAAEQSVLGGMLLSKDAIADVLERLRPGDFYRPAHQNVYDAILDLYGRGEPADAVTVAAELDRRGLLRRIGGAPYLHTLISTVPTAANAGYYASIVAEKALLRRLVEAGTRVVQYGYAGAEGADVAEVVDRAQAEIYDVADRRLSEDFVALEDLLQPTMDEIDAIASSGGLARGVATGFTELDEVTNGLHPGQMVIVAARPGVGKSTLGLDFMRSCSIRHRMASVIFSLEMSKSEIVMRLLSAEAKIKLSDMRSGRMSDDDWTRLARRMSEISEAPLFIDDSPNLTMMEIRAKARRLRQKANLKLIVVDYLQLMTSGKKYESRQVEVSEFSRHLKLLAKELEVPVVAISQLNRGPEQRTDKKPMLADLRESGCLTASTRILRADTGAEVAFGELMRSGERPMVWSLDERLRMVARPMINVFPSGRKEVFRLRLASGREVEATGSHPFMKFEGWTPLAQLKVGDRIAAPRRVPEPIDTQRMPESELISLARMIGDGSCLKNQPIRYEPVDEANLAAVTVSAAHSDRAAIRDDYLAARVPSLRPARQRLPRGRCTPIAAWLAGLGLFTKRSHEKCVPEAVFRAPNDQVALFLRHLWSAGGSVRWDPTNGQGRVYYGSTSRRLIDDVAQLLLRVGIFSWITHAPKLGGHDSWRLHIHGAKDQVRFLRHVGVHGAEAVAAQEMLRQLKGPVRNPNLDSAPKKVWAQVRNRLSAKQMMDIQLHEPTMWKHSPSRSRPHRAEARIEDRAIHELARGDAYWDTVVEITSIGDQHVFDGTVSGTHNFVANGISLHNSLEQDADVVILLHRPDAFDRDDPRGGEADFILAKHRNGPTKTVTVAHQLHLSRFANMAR

[8] = molecular target: Heat shock 70 kDa protein 1A (Homo sapiens, UniProt P0DMV8); assay: Hsp70 inhibitors, SAR follow-up, biochemical, fluorescence polarization (AID 1072)
[9] = molecular target: Glyceraldehyde-3-phosphate dehydrogenase (Homo sapiens, UniProt P04406)
[10] = molecular target: Heat shock cognate 71 kDa protein (Homo sapiens, UniProt P11142); assay: In Vitro Hsc70 Dose Response Fluorescence Polarization Assay. [Related pubchem assays: 1072 ]
[11] = molecular target: T3, Dual specificity protein phosphatase 6 (Rattus norvegicus, UniProt Q64346)
T3 sequence (Q64346 whole entry): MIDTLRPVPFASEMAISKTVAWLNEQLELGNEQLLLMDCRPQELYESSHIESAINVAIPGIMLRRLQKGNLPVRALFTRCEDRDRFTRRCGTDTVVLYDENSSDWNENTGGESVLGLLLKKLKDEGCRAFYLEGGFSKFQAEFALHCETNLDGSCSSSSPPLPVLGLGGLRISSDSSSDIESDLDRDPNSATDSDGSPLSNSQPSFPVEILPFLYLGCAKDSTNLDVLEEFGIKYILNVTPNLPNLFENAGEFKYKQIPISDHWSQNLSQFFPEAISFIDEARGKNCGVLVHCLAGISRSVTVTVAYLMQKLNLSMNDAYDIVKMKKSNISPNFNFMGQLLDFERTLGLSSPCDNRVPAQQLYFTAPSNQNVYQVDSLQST

[12] = molecular target: T4, Tyrosine-protein phosphatase non-receptor type 7 (Homo sapiens, UniProt P35236); type: functional
T4 sequence (P35236 whole entry): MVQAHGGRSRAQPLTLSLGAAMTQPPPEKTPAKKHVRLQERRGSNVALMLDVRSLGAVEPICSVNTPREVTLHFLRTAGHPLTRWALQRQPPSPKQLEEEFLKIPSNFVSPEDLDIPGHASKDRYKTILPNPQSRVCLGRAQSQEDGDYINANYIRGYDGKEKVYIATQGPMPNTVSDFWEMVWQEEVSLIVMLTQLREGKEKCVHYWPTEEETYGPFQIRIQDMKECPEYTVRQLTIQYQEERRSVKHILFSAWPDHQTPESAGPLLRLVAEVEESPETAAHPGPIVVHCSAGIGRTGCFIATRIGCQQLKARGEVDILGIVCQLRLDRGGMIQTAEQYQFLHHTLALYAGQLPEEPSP

[13] = molecular target: T3, Dual specificity protein phosphatase 6; type: functional
[14] = Vero E6 cell cytotoxicity, dose response, cytotoxicity control for non-replicating M. tuberculosis project, secondary assay (AID 492998); type: functional, VeroE6; details: Vero C1008
[15] = THP-1 cell cytotoxicity, dose response, cytotoxicity control for non-replicating M. tuberculosis project (AID 489025); type: functional
HEK293 [16] = assay: cytotoxicity in HEK293T NF-kB-Luc cells, SAR follow-up, cytotoxicity control for NF-kB activator project, cell-based, resazurin fluorescence (AID 493251); type: functional; details: Homo sapiens
cells = type: functional
[17] = molecular target: T5, Microphthalmia-associated transcription factor (Homo sapiens, UniProt O75030); assay: TRPM1 promoter luciferase signal decrease, dose response, MITF inhibitor project, cell-based, SK-MEL-5, cherry-picked, set 3 (AID 493073); type: functional
T5 sequence (O75030 whole entry): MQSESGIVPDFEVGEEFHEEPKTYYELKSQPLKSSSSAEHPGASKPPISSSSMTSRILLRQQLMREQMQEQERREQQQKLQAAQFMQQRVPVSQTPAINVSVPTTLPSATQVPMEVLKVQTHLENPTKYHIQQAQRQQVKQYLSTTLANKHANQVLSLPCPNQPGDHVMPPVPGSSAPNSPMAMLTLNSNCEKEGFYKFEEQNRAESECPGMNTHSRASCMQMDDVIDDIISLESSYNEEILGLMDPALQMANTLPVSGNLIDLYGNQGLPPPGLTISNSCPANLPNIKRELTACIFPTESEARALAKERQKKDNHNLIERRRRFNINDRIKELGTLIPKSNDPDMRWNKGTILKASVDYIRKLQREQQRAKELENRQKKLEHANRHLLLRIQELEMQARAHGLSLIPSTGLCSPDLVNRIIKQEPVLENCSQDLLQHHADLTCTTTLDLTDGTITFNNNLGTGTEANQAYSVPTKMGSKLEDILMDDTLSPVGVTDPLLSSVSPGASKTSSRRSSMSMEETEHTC

Jurkat = assay: SAR Analysis of small molecule inhibitors of T-cell specific antigen receptor-induced NF-kB activation in a Jurkat cell line using a luminescence assay - Set 2. [Related pubchem assays (depositor defined):AID435003, AID435012, AID465]; type: functional, cell-based
HEK293 [18] = assay: SAR Analysis of small molecule inhibitors of T-cell specific antigen receptor-induced NF-kB activation in a HEK-293T cell line using a luminescence assay - Set 2. [Related pubchem assays (depositor defined):AID435003, AID435012, AID489026]; type: functional, cell-based
[19] = off-target signal loss in HeLa-CEM21 co-culture – HeLa F-luc CTL cells, cherry-picked, counter-screen for HIV-1 Env fusion inhibitor project, dose response (AID 652040); type: functional, cell-based;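 further: potency for signal decrease marking cytotoxic or nonspecific inhibition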
[20] = inhibitors of clade B AD8 Env fusion, dose response, cell-based, cherry-pick (AID 652062); type: functional;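 further: luciferase signal from cell-cell fusion driven by HIV-1 clade B AD8 Env; potency is for inhibitors of fusion seen as a drop in luminescence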
[21] = inhibitors of HIV Env-driven cell fusion, dose response, cherry-pick (AID 652057); type: functional, cell-based
[22] = ZM109 Env clade C HIV-1 fusion inhibitors, dose response, HeLa effector, CEM target cells, luciferase, cherry-pick (AID 652058); type: functional, cell-based
[23] = molecular target: T6, Nuclear receptor subfamily 0 group B member 1 (Homo sapiens, UniProt P51843); assay: Luminescence-based cell-based high throughput dose response assay for inhibitors of the orphan nuclear receptor subfamily 0, group B, member 1 (DAX1; NR0B1). [Related pubchem assays (depositor defined):AID504766, AID504790]; type: functional
T6 sequence (P51843 whole entry): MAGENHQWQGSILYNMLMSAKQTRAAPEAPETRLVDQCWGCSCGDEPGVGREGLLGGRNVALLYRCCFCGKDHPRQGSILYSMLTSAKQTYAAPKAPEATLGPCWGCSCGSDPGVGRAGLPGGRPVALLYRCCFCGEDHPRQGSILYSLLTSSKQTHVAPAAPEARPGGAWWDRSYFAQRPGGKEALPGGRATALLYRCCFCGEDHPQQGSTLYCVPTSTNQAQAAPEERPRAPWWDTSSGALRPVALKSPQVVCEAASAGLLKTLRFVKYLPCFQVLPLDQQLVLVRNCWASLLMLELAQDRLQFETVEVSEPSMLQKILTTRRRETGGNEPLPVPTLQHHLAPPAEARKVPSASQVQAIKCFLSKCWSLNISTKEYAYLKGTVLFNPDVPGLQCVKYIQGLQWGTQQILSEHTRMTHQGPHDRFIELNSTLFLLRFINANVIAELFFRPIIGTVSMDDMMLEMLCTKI

HEK293 [24] = assay: cells; type: functional, cell-based; details: Homo sapiens; remark: listed apart in the source
[25] = molecular target: Dual specificity tyrosine-phosphorylation-regulated kinase 1A (Rattus norvegicus, UniProt Q63470); type: biochemical, Homo sapiens

Heat shock cognate 71 kDa protein, sequence (P11142 whole entry): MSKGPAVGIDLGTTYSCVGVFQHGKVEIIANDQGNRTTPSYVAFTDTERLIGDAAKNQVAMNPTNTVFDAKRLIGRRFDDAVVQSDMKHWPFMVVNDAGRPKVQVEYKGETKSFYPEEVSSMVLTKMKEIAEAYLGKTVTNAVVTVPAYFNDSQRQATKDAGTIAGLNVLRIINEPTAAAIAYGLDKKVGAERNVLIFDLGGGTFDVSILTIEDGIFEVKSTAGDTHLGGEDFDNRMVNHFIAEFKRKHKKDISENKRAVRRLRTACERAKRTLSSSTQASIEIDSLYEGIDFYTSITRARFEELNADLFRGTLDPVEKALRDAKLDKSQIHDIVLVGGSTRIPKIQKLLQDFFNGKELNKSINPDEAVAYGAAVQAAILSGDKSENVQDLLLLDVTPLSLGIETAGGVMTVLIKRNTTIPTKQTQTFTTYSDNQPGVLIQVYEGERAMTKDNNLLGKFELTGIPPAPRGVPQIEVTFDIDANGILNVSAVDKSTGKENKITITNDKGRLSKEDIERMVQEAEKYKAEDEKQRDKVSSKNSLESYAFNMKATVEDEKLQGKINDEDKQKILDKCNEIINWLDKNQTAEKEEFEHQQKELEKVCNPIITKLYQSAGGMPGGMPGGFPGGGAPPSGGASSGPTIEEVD
Heat shock 70 kDa protein 1A, sequence (P0DMV8 whole entry): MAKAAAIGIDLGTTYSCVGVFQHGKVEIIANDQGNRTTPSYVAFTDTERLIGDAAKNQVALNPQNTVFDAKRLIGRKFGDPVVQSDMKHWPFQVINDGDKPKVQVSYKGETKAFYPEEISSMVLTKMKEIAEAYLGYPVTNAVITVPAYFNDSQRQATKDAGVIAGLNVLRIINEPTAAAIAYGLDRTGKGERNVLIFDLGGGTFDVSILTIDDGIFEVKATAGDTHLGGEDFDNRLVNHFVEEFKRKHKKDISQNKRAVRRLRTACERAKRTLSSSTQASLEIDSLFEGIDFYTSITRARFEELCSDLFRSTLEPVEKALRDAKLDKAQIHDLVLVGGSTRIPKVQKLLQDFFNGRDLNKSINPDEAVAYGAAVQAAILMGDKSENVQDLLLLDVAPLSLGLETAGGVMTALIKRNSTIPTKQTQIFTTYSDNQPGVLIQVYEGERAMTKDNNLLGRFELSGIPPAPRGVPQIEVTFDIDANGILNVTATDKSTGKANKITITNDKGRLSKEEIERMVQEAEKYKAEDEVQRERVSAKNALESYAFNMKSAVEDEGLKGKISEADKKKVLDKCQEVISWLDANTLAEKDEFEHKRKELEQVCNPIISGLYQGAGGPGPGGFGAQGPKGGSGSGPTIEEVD
Glyceraldehyde-3-phosphate dehydrogenase, sequence (P04406 whole entry): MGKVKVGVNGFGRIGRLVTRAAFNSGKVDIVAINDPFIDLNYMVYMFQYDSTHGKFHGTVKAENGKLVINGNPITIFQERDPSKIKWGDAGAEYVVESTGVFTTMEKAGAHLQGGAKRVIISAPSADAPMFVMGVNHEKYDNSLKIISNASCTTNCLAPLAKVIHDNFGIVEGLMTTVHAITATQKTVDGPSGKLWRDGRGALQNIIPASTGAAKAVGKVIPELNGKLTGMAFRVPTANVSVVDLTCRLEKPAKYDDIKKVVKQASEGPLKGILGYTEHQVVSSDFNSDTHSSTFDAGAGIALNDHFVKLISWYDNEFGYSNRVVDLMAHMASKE

O=C(CCl)Nc1cc(S(=O)(=O)N2CCCCCC2)ccc1Cl
EC50 (HEK293 [1]): > 59.6 µM (inactive)
IC50 (HEK293 [2]): 7.86 µM (active)
EC50 (HEK293 [3]): > 59.6 µM (inactive)
EC50 (HEK293 [4]): 9.38 µM (active)
EC50 (Protein RecA): 2.03 µM (active)
IC50 (HEK293 [5]): > 20 µM (inactive)
IC50 (HEK293 [6]): > 20 µM (inactive)
AC50 [7]: 9.12 µM (active)

Cc1cc([N+](=O)[O-])cc2c1NC(C(=O)O)C1CC=CC21 (stereo not drawn)
IC50 [8]: 24.3 µM (active)
IC50 [9]: > 100 µM (not active)
IC50 [10]: 117 µM (active)
IC50 [11]: > 100 µM (inactive)
IC50 [12]: > 100 µM (not active)
IC50 [13]: > 100 µM (inactive)

Cc1cccc(NC(=O)c2ccc([N+](=O)[O-])o2)c1C
CC50 [14]: 8.76 µM (active)
CC50 [15]: 20.5 µM (active)
IC50 (HEK293 [16]): > 80 µM (inactive)
IC50 (cells): 10.8 µM (active)
AC50 [17]: 14.8 µM (active)
IC50 (Jurkat; Homo sapiens, Jurkat): 17.8 µM (active)
IC50 (Jurkat; jurkat): 14.6 µM (active)
IC50 (HEK293 [18]; Homo sapiens, HEK293): 69.2 µM (inactive)
IC50 (HEK293 [18]; hek293): 63.1 µM (inactive)

CCN1C(=O)[C@H]2[C@@H](c3ccc(C)cc3)N3C(=O)N(c4cccc(Cl)c4)C(=O)[C@@]3(CC)[C@H]2C1=O
AC50 [19]: 3.98 µM (active)
EC50 (HEK293 [1]): > 59.6 µM (inactive)
EC50 (HEK293 [3]): > 59.6 µM (inactive)
AC50 [20]: 4.82 µM (active)
AC50 [21]: 2.33 µM (active)
AC50 [22]: 2.06 µM (active)

C(=N\Nc1nc2ccccc2[nH]1)/c1ccc2c(c1)OCO2
IC50 [23]: > 67.5 µM (inactive)
IC50 (HEK293 [24]): > 67.5 µM (inactive)

O=C(O)C1Nc2ccccc2C2C=CCC12 (stereo not drawn)
IC50 [8]: 7.14 µM (active)
IC50 [9]: > 100 µM (not active)
IC50 [10]: > 100 µM (not active)
IC50 [11]: 50.8 µM (active)
IC50 [12]: 6.05 µM (active)
IC50 [13]: 25.2 µM (active)

c1cncc(-c2nc3ccccc3[nH]2)c1
AC50 [25]: > 120 µM (inactive)
